The source of these data is PubChem BioAssay (NCI).

Test systems include NCI/ADR-RES ovarian; SF-539 CNS; SF-268 CNS; SK-MEL-5 melanoma; UACC-62 melanoma; LOX IMVI melanoma; TK-10 renal; T-47D breast; SNB-75 CNS; A549 NSCLC; SK-OV-3 ovarian; NCI-H522 lung; MDA-MB-435; MCF7 breast; RXF 393 renal.
What all share (test): growth of human tumour cells (NCI), 48 h

Molecules are shown by their SMILES.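 How tested: cells in 96-well plates exposed to compound for 48 hours at five concentrations. TGI: total growth inhibition.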

Take `Fc1ccc(C(OCCN2CCC3CCC(C2)N3CCCc2ccccc2)c2ccc(F)cc2)cc1` (configuration not stated): the TGI is 13.7 µM in the assay on NCI/ADR-RES ovarian; 2.82 µM in the assay on SF-539 CNS; 19.8 µM in the assay on SF-268 CNS; 3.22 µM in the assay with SK-MEL-5 melanoma; 18.2 µM with UACC-62 melanoma; 13.8 µM in the assay with LOX IMVI melanoma. In addition, the TGI with TK-10 renal came to 15.7 µM; in the assay with T-47D breast it was 4.79 µM; in the assay with SNB-75 CNS, 10.3 µM; with A549 NSCLC it was 19.4 µM; in the assay with SK-OV-3 ovarian, 24.8 µM; with NCI-H522 lung it was 12.1 µM. Also, the values for the TGI with MDA-MB-435 and in the assay on MCF7 breast were 7.46 µM and 13 µM, respectively.

For the compound `CN1CC=C(OP(=O)(NCc2ccccc2)N(CCCl)CCCl)CC1` (configuration not stated), the TGI with NCI/ADR-RES ovarian, in the assay with SF-539 CNS, in the assay with SF-268 CNS, in the assay with UACC-62 melanoma, in the assay on LOX IMVI melanoma and in the assay with TK-10 renal was more than 100 µM each time. Moreover, the TGI in the assay on T-47D breast, in the assay on RXF 393 renal, with SNB-75 CNS, in the assay with SK-OV-3 ovarian, in the assay on MDA-MB-435 and in the assay with MCF7 breast was more than 100 µM throughout.

As to `COc1ccc(NS(=O)CCc2ccccc2)cc1` (configuration not stated), the TGI with NCI/ADR-RES ovarian, in the assay on SF-539 CNS, in the assay with SF-268 CNS, in the assay on SK-MEL-5 melanoma, in the assay on LOX IMVI melanoma and in the assay with TK-10 renal was more than 100 µM throughout. Moreover, the TGI with RXF 393 renal, in the assay with SNB-75 CNS, in the assay with A549 NSCLC, in the assay on NCI-H522 lung, with MDA-MB-435 and with MCF7 breast was more than 100 µM each time.

With `CCCCCCC(N)(CCCCCC)C(=O)Nn1c(C)ccc1C`, the TGI with NCI/ADR-RES ovarian, in the assay with SF-268 CNS, with SK-MEL-5 melanoma, in the assay on UACC-62 melanoma, in the assay with TK-10 renal and with T-47D breast was more than 100 µM in each case. The TGI with RXF 393 renal was more than 100 µM; in the assay with SNB-75 CNS it was more than 100 µM; in the assay on A549 NSCLC it was 65.3 µM; in the assay with SK-OV-3 ovarian, more than 100 µM; in the assay with NCI-H522 lung, more than 100 µM; in the assay with MDA-MB-435 it was more than 100 µM. Also, the TGI with MCF7 breast was 59.4 µM.

In the case of `Cn1c(=O)nc2n(CCO)c(-c3ccccc3)c(-c3ccccc3)nc-2c1=O`, the TGI in the assay on NCI/ADR-RES ovarian, in the assay on SF-539 CNS, in the assay with SF-268 CNS, in the assay on SK-MEL-5 melanoma, in the assay on UACC-62 melanoma and in the assay on LOX IMVI melanoma was more than 100 µM throughout. Besides, the TGI in the assay on TK-10 renal, in the assay with T-47D breast, in the assay on RXF 393 renal, with SNB-75 CNS, in the assay on A549 NSCLC and in the assay on SK-OV-3 ovarian was more than 100 µM in each case. Also, the TGI in the assay on NCI-H522 lung and in the assay with MDA-MB-435 was more than 100 µM throughout.

For the compound `N[C@@H]1C[C@H](N)c2c(Cl)sc(Cl)c21`, the TGI with NCI/ADR-RES ovarian, with SF-539 CNS, in the assay with SK-MEL-5 melanoma, in the assay on UACC-62 melanoma, with LOX IMVI melanoma and in the assay with T-47D breast was more than 100 µM each time. The TGI in the assay on RXF 393 renal, in the assay with SNB-75 CNS, in the assay on A549 NSCLC, with MDA-MB-435 and with MCF7 breast was more than 100 µM in each case.

In the case of `CC(C#N)Nc1ccc(Oc2ccc(C(C)(C)c3ccc(Oc4ccc(NC(C)C#N)cc4)cc3)cc2)cc1` (configuration not stated), the TGI in the assay on NCI/ADR-RES ovarian, with SF-539 CNS, in the assay on SF-268 CNS, in the assay on SK-MEL-5 melanoma, in the assay with UACC-62 melanoma and in the assay on LOX IMVI melanoma was more than 100 µM each time. The TGI with TK-10 renal, in the assay with T-47D breast, in the assay on RXF 393 renal, in the assay with SNB-75 CNS, with A549 NSCLC and in the assay on SK-OV-3 ovarian was more than 100 µM throughout. Also, the TGI with MDA-MB-435 and in the assay on MCF7 breast was more than 100 µM throughout.

As to `CCn1c(=O)c2c(=O)[nH][nH]c2c2ccccc21`, the TGI in the assay with NCI/ADR-RES ovarian, in the assay with SF-539 CNS, in the assay on SK-MEL-5 melanoma, in the assay with LOX IMVI melanoma, in the assay with TK-10 renal and in the assay on SNB-75 CNS was more than 100 µM throughout. Besides, the TGI in the assay with A549 NSCLC, in the assay on NCI-H522 lung, in the assay on MDA-MB-435 and with MCF7 breast was more than 100 µM throughout.

As for `CC(=NNC(=S)Nc1ccccc1C)c1cccc(C(C)=NNC(=S)Nc2ccccc2C)n1`, the TGI in the assay with NCI/ADR-RES ovarian, in the assay on SF-539 CNS, in the assay on SF-268 CNS, in the assay with SK-MEL-5 melanoma, in the assay on UACC-62 melanoma and in the assay with LOX IMVI melanoma was more than 100 µM throughout. In addition, the TGI in the assay on TK-10 renal, with T-47D breast, in the assay with RXF 393 renal, in the assay on A549 NSCLC, in the assay with SK-OV-3 ovarian and with MDA-MB-435 was more than 100 µM each time. Besides, the TGI in the assay with MCF7 breast was more than 100 µM.

Regarding `CC(=O)NNC=N/C(C#N)=C(\N)C#N`, the TGI with NCI/ADR-RES ovarian, in the assay with SF-539 CNS, with SF-268 CNS, in the assay with SK-MEL-5 melanoma, in the assay on UACC-62 melanoma and in the assay with LOX IMVI melanoma was more than 100 µM in each case. For the same compound, the TGI in the assay on TK-10 renal, with T-47D breast, in the assay with SNB-75 CNS, with A549 NSCLC, in the assay on SK-OV-3 ovarian and in the assay with NCI-H522 lung was more than 100 µM in each case. The TGI in the assay with MDA-MB-435 and in the assay with MCF7 breast was more than 100 µM each time.
